US12161695B2 (priority 2018, dated 2024)
Entries after “also recorded” stand apart in the source; their conditions may differ. Like-named read-outs stand apart in the source and are kept apart here. Where no end group is shown, it is not given here.

Experiments:
[1] = test system: iGABAARs in human pancreatic islet β cells; assay type: cell-based
Experimental: (§1) Human islets were generously provided by the Nordic Network for Clinical Islet Transplantation, supported by EXODIAB and the Juvenile Diabetes Research Foundation. All procedures were approved by the regional ethics committee in Uppsala and informed consent obtained by appropriate measures from donors or their relatives. […] The islets were then hand-picked and cultured free-floating in CMRL 1066 (ICN Biomedicals, Costa Mesa, CA, USA) supplemented with 10 mM HEPES, 2 mM L-glutamine, 50 jig/ml gentamicin, 0.25 jig/ml fungizone (GIBCO, BRL, Gaithersburg, MD, USA), 20 jig/ml ciprofloxacin (Bayer Healthcare, Leverkusen, Germany), and 10 mM nicotinamide at 37° C. in humidified atmosphere containing 5% CO2, vol/vol and used in the experiments from second day of incubation up to 10 days of culturing.
(§2) The whole-cell patch-clamp configuration was obtained on intact islets using the blind patch-clamp technique (Hamill et al., 1981; Jin et al., 2011; Neher and Sakmann, 1976) and single-channel currents were recorded at room temperature (20-22° C.) or at 34° C. The single intact islet was held by the holding pipette and approached by the recording pipette from the other side (see FIG. 1a). The holding and recording pipettes were made from borosilicate glass. During experiments, the pancreatic islets were perfused with the extracellular solution (mM): 137 NaCl, 5.6 KCl, 2.6 CaCl2, 1.2 MgCl2, 10 HEPES and 20 glucose (pH 7.4 using NaOH) at the rate of 3 mL/min. The intracellular solution consisted of (mM): 135 CsCl, 30 CsOH, 1 MgCl2, 10 EGTA, 5 HEPES and 3 Mg-ATP (pH 7.2 with HCl). Drugs were purchased from Sigma-Aldrich (Steinheim, Germany) or Ascent Scientific (Bristol, UK). Pentobarbital, propofol, GLP-1 and the GABAAR antagonist SR95531 were dissolved in the extracellular solution. Diazepam, zolpidem and the GABAAR antagonist picrotoxin stock solutions were made in dimethyl sulfoxide (DMSO) and then dissolved in the extracellular solution. […] Recordings were done using an Axopatch 200B amplifier, filtered at 2 kHz, digitized on-line at 10 kHz using an analog-to-digital converter and Clampex 10.5 (Molecular Devices, CA, USA) software. The access resistance was monitored and if it changed by more than 25%, the recording was rejected. The single-channel parameters (amplitude, frequency/opening rate, conductance, open probability Po, mean current Imean and mean open time To) were analyzed by Channel3 (Nicholas Laver, Derek Laver, the University of Newcastle, Australia) and Clampfit 10.5 (Molecular Devices, USA). We used a simplified version of a model, previously established by Jones and Westbrook (Jones and Westbrook, 1995) to describe the activation of GABAA receptors (see FIG. 2a model scheme). Simulations of opening rate and mean open time were generated from this theoretical model using the ‘Q-matrix’ method of Colquhoun and Hawkes (Colquhoun and Hawkes, 1981, 1982). We accounted for the effects of missed events due to filtering using the ‘effective rate constant’ method of Blatz and Magleby (Blatz and Magleby, 1986) incorporating an event dead-time of 0.1 ms.

human islets = assay: glucose-stimulated insulin secretion in human islets; assay type: cell-based
Experimental: The incubation medium was subsequently collected, the islets sonicated briefly (1-2 periods of 10 s) in acidic ethanol and frozen overnight. Samples from the medium and the islets were appropriately diluted and analyzed in duplicates for insulin using an immunoassay kit from Mesoscale Discovery (Rockville, MD, USA). Secretion was normalized to insulin content and expressed in relation to that at 20 mM glucose. In some experiments, the islets were placed in a closed 10-μL Teflon tubing perfusion. The chamber was perfused with buffer at a rate of 60 μL/min (AutoMate Scientific, Berkeley, CA). […] Three fractions were collected for each condition and analyzed for insulin. The results are presented as one data point per condition, which represents the average of the last two fractions at that condition. The first fraction was excluded since it was influenced by the preceding condition.

iGABAARII = assay: whole-cell patch-clamp single-channel currents in β cells of intact human islets, iGABAARII; assay type: cell-based
Experimental: as §1, §2

iGABAARI = assay: whole-cell patch-clamp single-channel currents in β cells of intact human islets, iGABAARI; assay type: cell-based; conditions: for GABA-activated single-channel conductance: 100 nM GABA; for reduction of Ka for GABA activation in T2D donors: T2D vs ND donors
Experimental: as §1, §2

[2] = cited from earlier work
[3] = test system: insulin granule exocytosis in human islet cells; assay: insulin granule exocytosis imaging by TIRF microscopy; assay type: cell-based
Experimental: The islets were dissociated into single cells in 0.0025% trypsin in cell dissociation buffer (Hank's based) for 3-5 minutes. Cells were washed once in serum-containing medium, plated onto 22-mm polylysine-coated coverslips and allowed to settle overnight. Adenovirus particles adNPY-Venus (Tsuboi et al., 2006) or adNPY-mCherry (Meur et al., 2010) was added and cells were imaged 24-36 hours later. Cells selected for experiments expressed the granule marker and appeared healthy. Cells were imaged in a standard solution containing (mM): 138 NaCl, 5.6 KCl, 1.2 MgCl2, 2.6 CaCl2, 20 D-glucose, 5 HEPES (pH 7.4 with NaOH) (Barg et al., 2002; Gandasi and Barg, 2014). For depolarization dependent exocytosis experiments, glucose was 10 mM and the solution supplemented with 2 μM forskolin and 200 μM diazoxide, a K^+-ATP-channel opener that prevents glucose-dependent depolarization. Exocytosis was then evoked with high K^+ solution (75 mM KCl equimolarly replacing NaCl). High K^+ was applied by computer-timed local pressure ejection through a glass pipette similar to those used for patch clamp. All experiments were carried out at ˜32° C. Cells were imaged using a custom-built lens-type total internal reflection (TIRF) microscope based on an Axiovert 135 microscope with a 100×/1.45 objective (Carl Zeiss). Excitation was from a DPSS laser at 491 (Cobolt, Stockholm, Sweden), controlled with an acousto-optical tunable filter (AA-Opto, France) and using dichroic Di01-R488/561 (Semrock) and emission filter FF01-523/610 (Semrock). Scaling was 160 nm per pixel and exposure time 100 ms per frame at 10 frames/s. Exocytosis events were found by eye. The moment of exocytosis was defined as the first significant change (2 standard deviations) from the pre-exocytosis baseline. This definition applied to both types of events, with or without preceding flash. The decay time was then defined as the time from exocytosis until the signal reached less than one third of the amplitude of the event. Traces were read out as DF, defined as average fluorescence in a 0.5 μm circle minus the average fluorescence in a surrounding annulus of 0.8 μm. The point of exocytosis was calculated by fitting the granule fluorescence during exocytosis with a discontinuous function (Eq 1), which assumes constant fluorescence before fusion, an inverted exponential decay just after fusion, and finally exponential decay during content release:
where t is time; c is average fluorescence in a 0.48 μm wide circle at the granule site; A1, A2 and A3 are the fluorescence values at the plateaus; τ1 and τ2 are the decay constants for the fluorescence increase after fusion and content release; and t1 and t2 are the times of fusion and release, respectively.

[4] = activated by interstitial GABA, room temperature
[5] = 20 mM glucose, with GABA, one T2D donor
[6] = diazepam 1 μM, propofol 10 μM, pentobarbital 100 μM, zolpidem 200 nM
[7] = diazepam 1 μM, propofol 10 μM, pentobarbital 100 μM, zolpidem 100 or 200 nM
[8] = GLP-1 application and following washout, n=5

picrotoxin [reference compound]
inhibition of iGABAAR (GABA-activated) currents ([1]; antagonist 100 μM where stated): inhibited
effect on the GABA-induced change of insulin secretion (human islets; picrotoxin added with GABA, ND donors): reversed

NCCCC(=O)O [GABA, gamma-aminobutyric acid]
GABA concentration above which receptors are desensitized and stop working [1]: exceeding 1000 nM
optimal GABA concentrations for active iGABAARs [1]: 100 nM to submicromolar
effect on mean current (Imean) ([1]; 100 nM GABA, Vp=−70 mV, 34° C.): significantly (P<0.05) enhanced
effect on open probability (Po) ([1]; 100 nM GABA, Vp=−70 mV, 34° C.): significantly (P<0.05) enhanced
GABA concentration at which GABA-activated Cl− currents were evoked ([1]; GABA applied 1 to 10^4 nM): > 10 nM
effect on mean open times To ([1]; islets from ND and T2D donors): did not affect
effect on rate (frequency) of channel openings ([1]; islets from ND and T2D donors): increased
GABA concentration at which channels start to desensitize ([1]; kinetic model): about 1 μM
GABA concentration at peak opening rate (iGABAARII; ND donors, 34° C.): 1 µM
increase of Ka on raising the temperature to 34° C. (iGABAARII; ND donors, 34° C. vs RT): 23 fold
GABA concentration at peak opening rate (iGABAARII; ND donors, room temperature): 0.1 µM
reduction of Ka for GABA activation in T2D donors (iGABAARII; T2D vs ND donors, 34° C.): 300 fold
cord conductance (iGABAARII; [4]): 76 pS
GABA-activated single-channel conductance (iGABAARI; islets from ND donors): 41±3 pS
GABA-activated single-channel conductance (iGABAARI; islets from T2D donors): 55±5 pS
GABA concentration at maximal rate (frequency) of channel openings (iGABAARI; ND donors): 100 nM
reduction of Ka for GABA activation in T2D donors (iGABAARI; 34° C.): ~3 fold
reduction of Ka for GABA activation in T2D donors (iGABAARI; RT): 6 fold
cord conductance (iGABAARI; [4]): 37 pS
time to maximum blood serum level of GABA ([2]; after administration in connection with ingestion of food): approximately 45 minutes
time after which blood serum levels of GABA markedly decrease ([2]; from the administration of GABA): approximately 90 minutes
insulin secretion normalized to the 20 mM glucose response (human islets; 100 nM GABA, 10 ND donors): 1.6±0.2
increase of insulin secretion (human islets; 100 nM GABA, 10 ND donors, average): approximately 60%
insulin secretion normalized to the 20 mM glucose response (human islets; GABA, islets from three ND donors): 0.7±0.01
exocytosis ([3]; 20 mM glucose >10 min, GABA present, ND donors): ~5 granules/min
exocytosis events per area and time ([3]; 20 mM glucose >10 min, GABA present, two ND donors, n=6): 0.095±0.01 10^−3·tm^−2·s^−1
exocytosis [3, 5]: ~1 granules/min
exocytosis events per area and time [3, 5]: 0.019±0.008 10^−3·tm^−2·s^−1
exocytosis for an average-sized cell ([3]; 75 mM K+ depolarization, 100 nM GABA): ~150 granules/min
exocytosis events per area and time ([3]; 75 mM K+ depolarization, 100 nM GABA, n=7): 2.5±0.6 10^−3·tm^−2·s^−1
loss of NPY-Venus from individual granules (decay constant) ([3]; 75 mM K+ depolarization, presence of GABA): 0.86 ± 0.09 s

CCCC(C)C1(CC)C(=O)NC(=O)NC1=O (stereo not shown) [pentobarbital, 5-ethyl-5-(1-methylbutyl)-barbiturate]
effect on mean single-channel current (Imean) [1, 6]: significantly increased
effect on opening frequency of iGABAARs [1, 6]: significantly increased
modulation of iGABAAR-mediated single-channel currents [1, 7]: enhanced

CN1C(=O)CN=C(c2ccccc2)c2cc(Cl)ccc21 [diazepam]
effect on mean single-channel current (Imean) [1, 6]: significantly increased
effect on opening frequency of iGABAARs [1, 6]: significantly increased
modulation of iGABAAR-mediated single-channel currents [1, 7]: enhanced

GLP-1: metabolic, gastrointestinal peptide hormone secreted by L-cells in the gut; enhances insulin secretion (HAEGTFTSDVSSYLEGQAAKEFIAWLVKGR; ends and bridges not checked; UniProt P01275 98-127, looked up) [reference compound]
time β-cells remember the GLP-1 activation after GLP-1 is no longer in circulation ([1]; GABA signalling stays elevated in absence of GLP-1): up to 30 minutes
effect on iGABAAR-mediated single-channel currents ([1]; GLP-1 50 pM in the presence of GABA 10 nM): potentiated
effect on single-channel conductance (iGABAARII; [8]): did not significantly change
effect on opening frequency of iGABAARI channels (iGABAARI; GLP-1 50 pM, n=6): significantly increased
effect on single-channel conductance (iGABAARI; [8]): did not significantly change
opening frequency / current enhancement after GLP-1 washout (iGABAARI; post GLP-1 vs before GLP-1 application): remained, albeit at a reduced level; also recorded: remained significantly higher

Br.COc1ccc(-c2ccc(=N)n(CCCC(=O)O)n2)cc1 [SR95531]
inhibition of iGABAAR (GABA-activated) currents [1]: inhibited

Cc1ccc(-c2nc3ccc(C)cn3c2CC(=O)N(C)C)cc1 [zolpidem]
effect on mean single-channel current (Imean) [1, 6]: not
effect on opening frequency of iGABAARs [1, 6]: not
modulation of iGABAAR-mediated single-channel currents [1, 7]: did not modulate and not

CC(C)c1cccc(C(C)C)c1O [propofol]
effect on mean single-channel current (Imean) [1]: significantly increased
effect on opening frequency of iGABAARs [1]: significantly increased
modulation of iGABAAR-mediated single-channel currents [1]: enhanced
